Values quoted from earlier work, collected in US20260144756A1 (US NANO FOOD AND DRUG INC, priority 2022, published 2026).

Details: in vivo

SMILES: CC(C)(Oc1ccc(C(=O)c2ccc(Cl)cc2)cc1)C(=O)O [fenofibric acid]
- elimination / terminal half-life: about 20 hours
